Series [1] has as its system A549. As to the kind of experiment: Antiproliferative activity against human A549 cells assessed as reduction in cell viability. The series is classed as functional, cell-based.
For series [2], the species on record is Homo sapiens. Put plainly: Selectivity ratio of IC50 for GLS2 (unknown origin) to IC50 for GLS1 (unknown origin).
Series [3] deals with A549. As to the kind of experiment: Inhibition of glutaminase in human A549 cells assessed as ratio of glutamine to glutamate level (Rv b= 0.45 +/- 0.011). Type of series: cell-based.
A short description of series [4]: Terminal half life in rat at 3 mg/kg, iv. Type of series: ADME, organism-based. As to conditions: in vivo, read-out: beta t1/2 (converted).
Series [5] in a line: Clearance in rat at 3 mg/kg, iv. Type of series: ADME, organism-based. Conditions: in vivo.
Series [6] in a line: Cmax in rat at 3 mg/kg, iv. The series is classed as ADME, organism-based. Also noted: dose 3 mg/kg, route iv. Conditions: in vivo.
Series [7] in a line: Cmax in rat at 3 mg/kg, po. The series is classed as ADME, organism-based. Also noted: dose 3 mg/kg, route po. As to conditions: in vivo.
The nature of series [8]: AUC(0 to t) in rat at 3 mg/kg, po. As to conditions: in vivo. The series is classed as ADME, organism-based. Also noted: dose 3 mg/kg, route po.
The subject of series [9] is HCT-116. As to the kind of experiment: Inhibition of colony formation in human HCT-116 cells at 2 to 8 uM. As to conditions: dose 2-8 µM. The series is classed as functional, cell-based.
For series [10], the system named is A549. Put plainly: Induction of cell cycle arrest in human A549 cells assessed as accumulation at G1 phase incubated for 48 hrs by propidium iodide staining based flow cytometry analysis. The series is classed as functional. Conditions: dose 50-800 nM. Background: A flow cytometer gives signals particle by particle.
The test system of series [11] is A549. As to the kind of experiment: Induction of cell cycle arrest in human A549 cells assessed as accumulation of cells at G0/G1 phase at 200 nM incubated for 48 hrs by propidium iodide staining based flow cytometry analysis (Rvb=61.61%). Type of series: functional.
Series [12] deals with A549. Put plainly: Induction of cell cycle arrest in human A549 cells assessed as accumulation of cells at G0/G1 phase at 800 nM incubated for 48 hrs by propidium iodide staining based flow cytometry analysis (Rvb=61.61%). The series is classed as functional.
For series [13], the system named is A549. As to the kind of experiment: Induction of cell cycle arrest in human A549 cells assessed as accumulation of cells at G2/M phase at 100 nM incubated for 48 hrs by propidium iodide staining based flow cytometry analysis (Rvb=23.88%). Type of series: functional.
Series [14] has as its system A549. Put plainly: Induction of cell cycle arrest in human A549 cells assessed as accumulation of cells at S phase at 50 nM incubated for 48 hrs by propidium iodide staining based flow cytometry analysis (Rvb=14.51%). Type of series: functional.
The test system of series [15] is A549. As to the kind of experiment: Induction of cell cycle arrest in human A549 cells assessed as accumulation of cells at S phase at 100 nM incubated for 48 hrs by propidium iodide staining based flow cytometry analysis (Rvb=14.51%). Type of series: functional.
Series [16] has as its system A549. As to the kind of experiment: Induction of cell cycle arrest in human A549 cells assessed as accumulation of cells at S phase at 200 nM incubated for 48 hrs by propidium iodide staining based flow cytometry analysis (Rvb=14.51%). Type of series: functional.
In series [17] the test system is A549. As to the kind of experiment: Induction of cell cycle arrest in human A549 cells assessed as accumulation of cells at S phase at 400 nM incubated for 48 hrs by propidium iodide staining based flow cytometry analysis (Rvb=14.51%). Type of series: functional.
In series [18] the test system is A549. Put plainly: Induction of apoptosis in human A549 cells assessed as early apoptotic cells at 5 uM incubated for 48 hrs by annexin V-FITC and propidium iodide based flow cytometry analysis (Rvb =12.289%). The series is classed as functional.
The test system of series [19] is A549. As to the kind of experiment: Induction of apoptosis in human A549 cells assessed as early apoptotic cells at 10 uM incubated for 48 hrs by annexin V-FITC and propidium iodide based flow cytometry analysis (Rvb =12.289%). The series is classed as functional.
A short description of series [20]: Toxicity in human A549 cells xenografted in mouse assessed as body weight loss at 100 mg/kg administered via oral gavage for 28 days relative to control. The series is classed as organism-based. As to conditions: in vivo, 672 h, time 28 day.
Series [21] deals with HCT-116. Put plainly: Antitumor activity against human HCT-116 cells xenografted in mouse model assessed as reduction in tumor cells at 100 mg/kg administered via oral gavage for 28 days. The series is classed as functional, organism-based. As to conditions: time 28.0 day.

The values below come from ChEMBL document CHEMBL5352409, “Design, synthesis, and pharmacological evaluation of 2-(1-(1,3,4-thiadiazol-2-yl)piperidin-4-yl)ethan-1-ol analogs as novel glutaminase 1 inhibitors” (Eur J Med Chem, 2022).

Calls of active or inactive are those of the source. No cut-off for these calls is given here.

Usually IC50 stands for the concentration that inhibits the measured activity by half. Broadly, the Cmax is the peak of the concentration-time curve. Turning to `CCCCCCN1CCC(CNC(=O)c2cccc(COCCC3CCN(c4nnc(NC(=O)Cc5ccccc5)s4)CC3)c2)CC1`, the 50% inhibitory concentration (IC50) in series [1] came to 570 nM. Besides, the Ratio IC50 in series [2] was above 100. Besides, the Ratio in series [3] came out at 1.32. Besides, the half-life in series [4] was 9.9 h. Also, the CL in series [5] came out at 102 mL/min/kg. The Cmax is 699 ng/mL in series [6] and 41.3 ng/mL in series [7]. Moreover, the AUCt in series [8] came out at 251.6 ng·h/mL. In addition, the inhibition result in [9] is “Active”. The Activity result in series [10] was “Dose-Dependent Effect”; in [11] it was 66.93%; in series [12] it was 68.55%; in series [13], 17.3%; in [14], 13.17%; in series [15], 17.76%. In addition, the Activity is given as 13.34% in series [16]; 13.76% in [17]; 20.673% in series [18]; 16.025% in series [19]; “Non-Toxic” in series [20]. In addition, in series [21], the result was Active.
